According to publication PMC9079742, “Branched copolymer-stabilised nanoemulsions as new candidate oral drug delivery systems” (RSC Advances, 2018):
Values after ≈ are worked out from the molar mass of the structure shown.

Key:
[1] = Drug solubility in natural oils; type: physicochemical; conditions: oil or lipid
[2] = MTT cytotoxicity assay; type: cell-based; conditions: human, Caco-2 cells, aqueous/DMSO solution
Method: The inherent cytotoxicity of the branched copolymer was evaluated using the CellTiterGlo® ATP assay whilst the stabilised nanoemulsions were studied using a 3-(4,5-dimethylthiazol-2-yl)-2,5-diphenyltetrazolium bromide (MTT) assay which employs the reduction of MTT to formazan to establish changes in mitochondrial enzyme activity (Fig. S5 ^†).
Cellular Cytotoxicity Assay
Approximately 100,000 cells per 100 L were seeded per well in a 96 well tissue culture plate, leaving
24 hours for cells to adhere to the plate. After this 24-hour period, media was aspirated from all wells
and replaced with fresh complete culture media containing appropriate sample concentrations. A
maximal drug concentration of 10 μM was used, decreasing in a 1:1 dilution series. For blank emulsion
samples were an equivalent volume of nanoemulsion was used to prepare the sample, such that the
volume of nanoemulsion was the same as those in the drug loaded nanoemulsion samples. Plates
were left for between 1 and 5 days, after which time 20 L of 5 mg/mL MTT reagent (3-(4,5-
dimethylthiazol-2-yl)-2,5-diphenyltetrazolium bromide) was added to every well and left for 2 hours. […]
formazan crystals. Plates were then read on a Tecan GENios plate reader (Tecan Group, Manndorf,
Switzerland) reader set to absorbance mode, with wavelength at 560 nm.

[3] = Caco-2 transcellular permeation model (transwell); type: in vitro ADME, human; conditions: human, Caco-2; for Papp A→B at 2 h, 10 μM / Papp B→A at 2 h, 10 μM: aq/DMSO solution or castor oil nanoemulsion, N=4
Method: (§1) The apparent permeability (Papp) of the candidate drug-loaded nanoemulsions were determined using the Caco-2 cells after forming a confluent monolayer, with tight junctions between the cells (confirmed by TEER), on a porous transwell membrane; this is a widely-used model for oral absorption.[34] Within this assay, the cells polarise to present microvilli on the gut (apical; A) side of the cells,[35] reproducing the morphology and function of the small intestine. The blood (basolateral; B) side of the cells models the interface with the systemic circulation. […]
(§2) droplets were below 300 nm in diameter.
(§3) During the 2 minutes, the vial was […]
(§4) to achieve a creamy emulsion. […]
(§5) Caco-2 Transcellular Permeation Model
(§6) After this time, culture media was […]
(§7) and immediately frozen at -40°C for subsequent batch analysis via HPLC. Sink conditions were determined as being satisfied when <10% of starting concentration had permeated. Papp was determined with the following equation: […]
(§8) Where A is the concentration in the sample, T is the time in seconds at which the sample was collected, V is the total volume of sample contained in the chamber being sampled, S is the initial starting concentration of the drug and 0.3 is the surface area in cm2 of the transwell insert on which the Caco-2 […]
(§9) High Performance Liquid Chromatography
(§10) 200 μL of sample (thawed from -40°C storage) was added to 1 ml of HPLC grade acetonitrile in a universal tube and vortexed for 30 seconds. The universal tubes where then centrifuged for 5 minutes at 4°C at 13,300 rpm, after which the supernatant was transferred to fresh glass tubes. These tubes were placed in a vacuum centrifuge drier and heated to 35°C to remove excess acetonitrile and dry down the sample to a pellet. Pellets were then re-suspended in 200 μL fresh 20% HPLC grade acetonitrile, 80% HPLC grade water, and transferred to 1.8 ml HPLC vials and sealed for HPLC analysis.
(§11) The mobile phase (C) consisted of 95% water and 5% acetonitrile, with 5mM final concentration of ammonium formate. The elution buffer (D) consisted of 90% acetonitrile and 10% water with no ammonium formate. A calibration curve was produced using a 1:2 dilution from 20,000 ng/ml to 39 ng/ml, with separate quality control samples at 600 ng/ml, 3000 ng/ml and 15,000 ng/ml. The initial starting conditions of each run were 100% C, changing to 92% D / 8% C after 30 seconds, holding at this percentage for 5 minutes before raising to 100% D for 1 minute. The final 2 minutes of the run returned the column to 100% of C, ready for the injection of the next sample. The EFV was eluted at around 4.3 minutes into the run. The lower limit of quantification was 78 ng/mL, with intraday variability <20% and inter day variability <15%. […]
(§12) Plates were incubated for 5 days at 37°C and 5%
(§13) CO2. Activity of both aqueous and nanoformulations against HIV-1 IIIB was determined by quantifying the amount of live cells in each condition by means of an MTT cell viability assay. Concentrations of […]
(§14) was due solely to HIV infection.

[4] = test system: Caco-2 monolayers; test: Caco-2 transcellular permeation model (transwell); type: in vitro ADME, human
Method: as §1, §2, §3, §4, §5, §6, §7, §8, §9, §10, §11, §12, §13, §14

[5] = test system: HIV-1 IIIB; test: Antiviral activity assay (MTT viability of infected MT4 cells); type: cell-based; conditions: Human immunodeficiency virus 1, 120 h, HIV-1 IIIB-infected MT4 cells, 5 days incubation, N = 4
Excerpt: The potential ability to enhance the oral permeability of the antiretroviral drugs LPV and EFV may lead to increased drug absorption and a subsequent decrease in oral dose required to treat HIV patients. Drug permeation through the gut model employed here provides no information about whether free drug or intact nanoemulsions have traversed the epithelium. The potential for nanoemulsions entering the systemic circulation after in vivo absorption necessitates assessment of antiviral activity of the ARV-containing droplets and this was undertaken using HIV-1 IIIB-infected MT4 cells. […] Activity against the virus was determined by using an MTT cell viability assay to assess the number of live cells as viral replication leads to cell death.
Fig. 4 Antiviral activity of aqueous (circles) and nanoemulsion (triangles) formulations containing (A) EFV; and (B) LPV after 5 days incubation with MT4 cells and HIV-1 IIIB. Viral kill was derived by using MTT assay to quantify the metabolic activity of the MT4 cells, using this a proxy of cellular viability. […] Data expressed as ± SEM, N = 4. […]
as §7

Work on `O=C1Nc2ccc(Cl)cc2[C@@](C#CC2CC2)(C(F)(F)F)O1` [EFV, efavirenz] yielded a solubility ([1]; in castor oil) of at least 50 mg/mL, a solubility ([1]; in peanut oil) of at least 50 mg/mL and a solubility ([1]; in soybean oil) of at least 50 mg/mL. The CC50 [2] was 55 µM, the efflux ratio at 1 h [3] was 3.98 and the efflux ratio at 2 h [3] was 3.11. For the same compound, the Papp A→B at 2 h, 10 μM [3] was 8.21 ×10⁻⁶ cm/s, the Papp B→A at 2 h, 10 μM [3] was 25.5 ×10⁻⁶ cm/s and the “Difference in permeation, emulsion form versus aqueous DMSO control” value ([4]; Caco-2) was “very limited difference”. For the same compound, the IC50 [5] was about 1.25 µM.
Compound `Cc1cccc(C)c1OCC(=O)N[C@@H](Cc1ccccc1)[C@@H](O)C[C@H](Cc1ccccc1)NC(=O)[C@H](C(C)C)N1CCCNC1=O` [LPV, lopinavir] has a solubility ([1]; in castor oil) of about 25 mg/mL (≈ 39.8 mM), a solubility ([1]; in peanut oil) of under 12 mg/mL and a solubility ([1]; in soybean oil) of under 12 mg/mL. It also gave an efflux ratio at 1 h [3] of 1.11, an efflux ratio at 2 h [3] of 4.78 and a Papp A→B at 2 h, 10 μM [3] of 2.7 ×10⁻⁶ cm/s. For the same compound, the Papp B→A at 2 h, 10 μM [3] was 12.9 ×10⁻⁶ cm/s, the “Permeation in emulsion form relative to control within aqueous DMSO vehicle” value ([4]; human, Caco-2, 2 h, 10 μM) was “approximately 10 fold” and the IC50 [5] was 0.46 µM.
